Measured values as given in patent US10800792B2, “Inhibitors of Bruton's tyrosine kinase and method of their use” (JANSSEN PHARMACEUTICA NV, priority 2015, dated 2020).

Biological target: unphosphorylated-BTK kinase domain (UP-BTK), GST-tagged human BTK (389-659aa) (Homo sapiens (Human), UniProt Q06187)
Assay: BTK kinase Lanthascreen binding assay
Conditions: unphosphorylated-BTK kinase domain, 50 nM Tracer 236, 60 minutes; pIC50 = negative log of the IC50 in molar
Protocol: BTK Kinase Lanthascreen Binding Assay:
A BTK kinase lanthascreen binding assay monitors compound binding to unphosphorylated-BTK kinase domain (UP-BTK), by competing with a fluorescent labeled tracer. […] Data were analyzed using Xlfit™ version 5.3 from ID Business Solutions (Guildford), Microsoft Excel add-in. pIC50 refers to the negative log of the IC50 in molar

unphosphorylated-BTK kinase domain (UP-BTK), GST-tagged human BTK (389-659aa), sequence (Q06187 389-659): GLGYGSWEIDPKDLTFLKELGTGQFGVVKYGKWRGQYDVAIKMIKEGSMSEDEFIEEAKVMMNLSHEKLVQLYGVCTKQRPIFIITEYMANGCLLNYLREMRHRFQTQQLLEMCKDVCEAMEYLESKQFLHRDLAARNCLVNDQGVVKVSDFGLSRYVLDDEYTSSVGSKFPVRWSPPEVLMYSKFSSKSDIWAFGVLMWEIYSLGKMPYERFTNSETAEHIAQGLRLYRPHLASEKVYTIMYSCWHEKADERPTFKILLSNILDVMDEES

Row | Compound | BTK_I_binding pIC50
1 | Cc1cc(Oc2ccccc2)ccc1N1C(=O)Nc2c(C(=O)N[C@@H]3CCCN(C(=O)/C(C#N)=C/C(C)(C)C)C3)sc3nccc1c23 (single isomer, unassigned) [Example 398, (R,E)-N-(1-(2-Cyano-4,4-dimethylpent-2-enoyl)piperidin-3-yl)-5-(*R)-(2-methyl-4-phenoxyphenyl)-4-oxo-4,5-dihydro-3H-1-thia-3,5,8-triazaacenaphthylene-2-carboxamide] | 6.6
2 | CC(C)=C(Cl)C(=O)N1CCC[C@@H](NC(=O)c2sc3nccc4c3c2NC(=O)N4c2ccc(Oc3ccccc3)cc2C)C1 (single isomer, unassigned) [Example 438, (R)—N-(1-(2-Chloro-3-methylbut-2-enoyl)piperidin-3-yl)-5-(*S)-(2-methyl-4-phenoxyphenyl)-4-oxo-4,5-dihydro-3H-1-thia-3,5,8-triazaacenaphthylene-2-carboxamide] | 6.7
3 | CC(C)=C(Cl)C(=O)N1CCC[C@@H](NC(=O)c2sc3nccc4c3c2NC(=O)N4c2ccc(Oc3ccccc3)cc2C)C1 (single isomer, unassigned) [Example 439, (R)—N-(1-(2-Chloro-3-methylbut-2-enoyl)piperidin-3-yl)-5-(*R)-(2-methyl-4-phenoxyphenyl)-4-oxo-4,5-dihydro-3H-1-thia-3,5,8-triazaacenaphthylene-2-carboxamide] | 5.7
4 | C=CC(=O)N1CC[C@@H](N(C)C(=O)c2sc3nccc4c3c2NC(=O)N4c2ccc(Oc3ccccc3)cc2C)C1 (single isomer, unassigned) [Example 441, (R)—N-(1-Acryloylpyrrolidin-3-yl)-N-methyl-5-(*S)-(2-methyl-4-phenoxyphenyl)-4-oxo-4,5-dihydro-3H-1-thia-3,5,8-triazaacenaphthylene-2-carboxamide] | 5.9
5 | C=CC(=O)N1CC[C@@H](N(C)C(=O)c2sc3nccc4c3c2NC(=O)N4c2ccc(Oc3ccccc3)cc2C)C1 (single isomer, unassigned) [Example 442, (R)—N-(1-Acryloylpyrrolidin-3-yl)-N-methyl-5-(*R)-(2-methyl-4-phenoxyphenyl)-4-oxo-4,5-dihydro-3H-1-thia-3,5,8-triazaacenaphthylene-2-carboxamide] | 6.9
6 | COC(C)(C)/C=C(\C#N)C(=O)N1CCC[C@@H](NC(=O)c2sc3nccc4c3c2NC(=O)N4c2ccc(Oc3ccccc3)cc2C)C1 (single isomer, unassigned) [Example 450, (R,*E)-N-(1-(2-Cyano-4-methoxy-4-methylpent-2-enoyl)piperidin-3-yl)-5-(*S)-(2-methyl-4-phenoxyphenyl)-4-oxo-4,5-dihydro-3H-1-thia-3,5,8-triazaacenaphthylene-2-carboxamide] | 7.6
7 | C/C=C/C(=O)N1CCC[C@@H](NC(=O)c2sc3nccc4c3c2NC(=O)N4c2ccc(Oc3ccccc3)cc2C)C1 (single isomer, unassigned) [Example 473, (R,*E)-N-(1-(But-2-enoyl)piperidin-3-yl)-5-(*S)-(2-methyl-4-phenoxyphenyl)-4-oxo-4,5-dihydro-3H-1-thia-3,5,8-triazaacenaphthylene-2-carboxamide] | 5.9

The remaining lines, values ahead:

Row | BTK_I_binding pIC50 | Compound
8 | 7.0 | Cc1cc(Oc2ccccc2)ccc1N1C(=O)Nc2c(C(=O)N[C@H]3CCNC(C)C3)sc3nccc1c23 (single isomer, unassigned) [Example 432, 5-(*S)-(2-Methyl-4-phenoxyphenyl)-N-((4*S)-2-methylpiperidin-4-yl)-4-oxo-4,5-dihydro-3H-1-thia-3,5,8-triazaacenaphthylene-2-carboxamide]
9 | 5.4 | Cc1cc(Oc2ccccc2)ccc1N1C(=O)Nc2c(C(=O)N[C@H]3CCNC(C)C3)sc3nccc1c23 (single isomer, unassigned) [Example 433, 5-(*R)-(2-Methyl-4-phenoxyphenyl)-N-((4*S)-2-methylpiperidin-4-yl)-4-oxo-4,5-dihydro-3H-1-thia-3,5,8-triazaacenaphthylene-2-carboxamide]
10 | 7.3 | Cc1cc(Oc2ccccc2)ccc1N1C(=O)Nc2c(C(=O)N[C@@H]3CCNC(C)C3)sc3nccc1c23 (single isomer, unassigned) [Example 434, 5-(*S)-(2-Methyl-4-phenoxyphenyl)-N-((4*R)-2-methylpiperidin-4-yl)-4-oxo-4,5-dihydro-3H-1-thia-3,5,8-triazaacenaphthylene-2-carboxamide]
11 | 5.9 | Cc1cc(Oc2ccccc2)ccc1N1C(=O)Nc2c(C(=O)N[C@@H]3CCNC(C)C3)sc3nccc1c23 (single isomer, unassigned) [Example 435, 5-(*R)-(2-Methyl-4-phenoxyphenyl)-N-((4*R)-2-methylpiperidin-4-yl)-4-oxo-4,5-dihydro-3H-1-thia-3,5,8-triazaacenaphthylene-2-carboxamide]
12 | 7.1 | Cc1cc(Oc2ccccc2)ccc1N1C(=O)Nc2c(C(=O)N[C@@H]3CNC(=O)C3)sc3nccc1c23 (single isomer, unassigned) [Example 469, (*S)-5-(*S)-(2-Methyl-4-phenoxyphenyl)-4-oxo-N-(5-oxopyrrolidin-3-yl)-4,5-dihydro-3H-1-thia-3,5,8-triazaacenaphthylene-2-carboxamide]
13 | 5.6 | Cc1cc(Oc2ccccc2)ccc1N1C(=O)Nc2c(C(=O)N[C@@H]3CNC(=O)C3)sc3nccc1c23 (single isomer, unassigned) [Example 470, (*S)-5-(*R)-(2-Methyl-4-phenoxyphenyl)-4-oxo-N-(5-oxopyrrolidin-3-yl)-4,5-dihydro-3H-1-thia-3,5,8-triazaacenaphthylene-2-carboxamide]
14 | 5.9 | Cc1cc(Oc2ccccc2)ccc1N1C(=O)Nc2c(C(=O)N[C@H]3CNC(=O)C3)sc3nccc1c23 (single isomer, unassigned) [Example 471, (*R)-5-(*S)-(2-Methyl-4-phenoxyphenyl)-4-oxo-N-(5-oxopyrrolidin-3-yl)-4,5-dihydro-3H-1-thia-3,5,8-triazaacenaphthylene-2-carboxamide]
15 | 7.4 | Cc1cc(Oc2ccccc2)ccc1N1C(=O)Nc2c(C(=O)N[C@H]3CNC(=O)C3)sc3nccc1c23 (single isomer, unassigned) [Example 472, (*R)-5-(*R)-(2-Methyl-4-phenoxyphenyl)-4-oxo-N-(5-oxopyrrolidin-3-yl)-4,5-dihydro-3H-1-thia-3,5,8-triazaacenaphthylene-2-carboxamide]
16 | 7.6 | C/C=C/C(=O)N1CCC[C@@H](NC(=O)c2sc3nccc4c3c2NC(=O)N4c2ccc(Oc3ccccc3)cc2C)C1 (single isomer, unassigned) [Example 474, (R,*E)-N-(1-(But-2-enoyl)piperidin-3-yl)-5-(*R)-(2-methyl-4-phenoxyphenyl)-4-oxo-4,5-dihydro-3H-1-thia-3,5,8-triazaacenaphthylene-2-carboxamide]
17 | 6.1 | C/C=C\C(=O)N1CCC[C@@H](NC(=O)c2sc3nccc4c3c2NC(=O)N4c2ccc(Oc3ccccc3)cc2C)C1 (single isomer, unassigned) [Example 475, (R,*Z)—N-(1-(But-2-enoyl)piperidin-3-yl)-5-(*R)-(2-methyl-4-phenoxyphenyl)-4-oxo-4,5-dihydro-3H-1-thia-3,5,8-triazaacenaphthylene-2-carboxamide]
